Results taken from patent US9561231B2 (AbbVie Inc., priority 2012, dated 2017).
Like-named read-outs stand apart in the source and are kept apart here.

What was measured:
[1] = system: breast cancer cell line MX-1; assay: MX-1 cell line proliferation assay (3-day); assay type: cell-based; conditions: Homo sapiens, MX1, MX-1 cells, Cell Titer Glo, read-out: Cellular proliferation: EC50
Procedure, shortened: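 EC50 derived by sigmoidal fitting of Cell Titer Glo signal relative to DMSO controls. Compound, 3 μM down to 0.0001 μM final in 3-fold steps, was added to adhered MX-1 cells (5000/well, RPMI + 10% FBS) for a 3-day incubation at 37° C.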

[2] = molecular target: T1, second (BD2: amino acids E352-E168) bromodomain of BRD4 (Homo sapiens, UniProt O60885); assay: TR-FRET bromodomain binding assay, BRD4 BD2; conditions: Ki calculated from IC50, probe Kd and probe concentration, read-out: TR-FRET Binding Ki: BRD4 (BDII_E352-M457)
T1 construct: protocol
Procedure, shortened: (§1)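 Displacement of an Alexa647-labelled BET-inhibitor from His-tagged BD1 (K57-E168) or BD2 ([…]) measured by TR-FRET in pH 6.0 sodium phosphate buffer with NaCl, EDTA, Triton X-100 and DTT.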

[3] = molecular target: T2, first (BD1: amino acids K57-E168) bromodomain of BRD4 (Homo sapiens, UniProt O60885); assay: TR-FRET bromodomain binding assay, BRD4 BD1; conditions: Ki calculated from IC50, probe Kd and probe concentration, read-out: TR-FRET Binding Ki: BRD4 (BDI_K57-E168)
T2 construct: His-tagged first (BD1: amino acids K57-E168)
Procedure, shortened: as §1

[4] = TR-FRET assay protocol (A-G, compound concentration range)
[5] = TR-FRET assay protocol (D, E or G) per compound

With `CCS(=O)(=O)Nc1ccc(Oc2ccc(F)cc2F)c(-c2cn(C)c(=O)cc2OC2CCN(C(=O)OC(C)(C)C)CC2)c1` [Example 319, tert-butyl 4-[(5-{2-(2,4-difluorophenoxy)-5-[(ethylsulfonyl)amino]phenyl}-1-methyl-2-oxo-1,2-dihydropyridin-4-yl)oxy]piperidine-1-carboxylate] the EC50 ([1]; 72 h incubation) was 322 nM, the Ki [2, 4] was 104 nM and the Ki [3, 4] was 316 nM.

`Cn1cnc(S(=O)(=O)Nc2ccc(Oc3ccccc3)c(-c3ccc(=O)n(C)c3)c2)c1` [Example 227, 1-methyl-N-[3-(1-methyl-6-oxo-1,6-dihydropyridin-3-yl)-4-phenoxyphenyl]-1H-imidazole-4-sulfonamide] showed an EC50 ([1]; 72 h incubation) greater than 3000 nM, a Ki [2, 4] of 420 nM and a Ki [3, 4] of 157 nM.

`CC(=O)Nc1ccc(Oc2ccccc2)c(-c2ccc(=O)n(C)n2)c1` [Example 12, N-[3-(1-methyl-6-oxo-1,6-dihydropyridazin-3-yl)-4-phenoxyphenyl]acetamide] gave an EC50 ([1]; 72 h incubation) of 2660 nM, a Ki [2, 4] of 696 nM and a Ki [3, 4] of 575 nM.

Work on `Cn1cc(-c2cc(S(N)(=O)=O)ccc2Oc2ccccc2)ccc1=O` [Example 256, 3-(1-methyl-6-oxo-1,6-dihydropyridin-3-yl)-4-phenoxybenzenesulfonamide] yielded an EC50 ([1]; 72 h incubation) of 1060 nM, a Ki [2, 4] of 93.6 nM and a Ki [3, 4] of 219 nM.

In the case of `CCS(=O)(=O)Nc1ccc(Oc2ccc(F)cc2F)c(-c2cn(C)c(=O)cc2-c2ccc(CN(C)C)cc2)c1` [Example 280, N-[4-(2,4-difluorophenoxy)-3-(4-{4-[(dimethylamino)methyl]phenyl}-1-methyl-6-oxo-1,6-dihydropyridin-3-yl)phenyl]ethanesulfonamide], the EC50 ([1]; 72 h incubation) is reported as 38.1 nM, the Ki [2, 4] is reported as 1.73 nM and the Ki [3, 4] is reported as 3.8 nM.

In the case of `COc1cc(=O)n(C)nc1-c1ccccc1Oc1ccc(Cl)cc1` [Example 37, 6-[2-(4-chlorophenoxy)phenyl]-5-methoxy-2-methylpyridazin-3(2H)-one], the EC50 ([1]; 72 h incubation) is reported as 10000 nM, the Ki [2, 4] is reported as 1790 nM and the Ki [3, 4] is reported as 1730 nM.

In the case of `Cn1cc(-c2cc(NS(C)(=O)=O)ccc2Oc2ccc(F)cc2F)c(-c2ccc(N3CCOCC3)cc2)cc1=O` [Example 274, N-[4-(2,4-difluorophenoxy)-3-{1-methyl-4-[4-(morpholin-4-yl)phenyl]-6-oxo-1,6-dihydropyridin-3-yl]phenyl}methanesulfonamide], the EC50 ([1]; 72 h incubation) is reported as 77.4 nM, the Ki [2, 4] is reported as 5.5 nM and the Ki [3, 4] is reported as 24.5 nM.

`CN1CCN(Cc2ccc(-c3cc(=O)n(C)cc3-c3cc(NS(C)(=O)=O)ccc3Oc3ccc(F)cc3F)cc2)CC1` [Example 273, N-[4-(2,4-difluorophenoxy)-3-(1-methyl-4-{4-[(4-methylpiperazin-1-yl)methyl]phenyl}-6-oxo-1,6-dihydropyridin-3-yl)phenyl]methanesulfonamide] gave an EC50 ([1]; 72 h incubation) of 107 nM, a Ki [2, 4] of 2.45 nM and a Ki [3, 4] of 4.58 nM.

`CCS(=O)(=O)Nc1ccc(Oc2ccc(F)cc2F)c(-c2cn(C)c(=O)cc2OCC2CCN(C(=O)OC(C)(C)C)CC2)c1` [Example 324, tert-butyl 4-{[(5-{2-(2,4-difluorophenoxy)-5-[(ethylsulfonyl)amino]phenyl}-1-methyl-2-oxo-1,2-dihydropyridin-4-yl)oxy]methyl}piperidine-1-carboxylate] showed an EC50 ([1]; 72 h incubation) of 436 nM, a Ki [2, 4] of 18.1 nM and a Ki [3, 4] of 45 nM.

`CCOc1cc(=O)n(C)cc1-c1cc(NS(=O)(=O)CC)ccc1Oc1ccc(C(F)(F)F)cc1` [Example 386, N-{3-(4-ethoxy-1-methyl-6-oxo-1,6-dihydropyridin-3-yl)-4-[4-(trifluoromethyl)phenoxy]phenyl}ethanesulfonamide] gave an EC50 ([1]; 72 hours with compound) of 54.1 nM, a Ki [2, 5] of 10.2 nM and a Ki [3, 5] of 81.8 nM.

`Cn1cc(-c2cc(NS(=O)(=O)CC(F)(F)F)ccc2Oc2ccccc2)ccc1=O` [Example 229, 2,2,2-trifluoro-N-[3-(1-methyl-6-oxo-1,6-dihydropyridin-3-yl)-4-phenoxyphenyl]ethanesulfonamide] gave an EC50 ([1]; 72 h incubation) of 507 nM, a Ki [2, 4] of 21.8 nM and a Ki [3, 4] of 31.8 nM.

For `CCS(=O)(=O)Nc1ccc(Oc2ccc(F)cc2F)c(-c2cc(F)c(=O)n(C)c2)c1` [Example 352, N-[4-(2,4-difluorophenoxy)-3-(5-fluoro-1-methyl-6-oxo-1,6-dihydropyridin-3-yl)phenyl]ethanesulfonamide], the EC50 ([1]; 72 h incubation) was 256 nM, the Ki [2, 4] was 77.9 nM and the Ki [3, 4] was 26.8 nM.

`Cc1cc(-c2cc(NS(C)(=O)=O)ccc2Oc2ccc(F)cc2F)c[nH]c1=O` [Example 263, N-[4-(2,4-difluorophenoxy)-3-(5-methyl-6-oxo-1,6-dihydropyridin-3-yl)phenyl]methanesulfonamide] gave an EC50 ([1]; 72 h incubation) of 304 nM, a Ki [2, 4] of 121 nM and a Ki [3, 4] of 48.8 nM.

`Cn1nc(-c2ccccc2Oc2ccccc2)c(-c2ccc(CN3CCCCC3)cc2)cc1=O` [Example 67, 2-methyl-6-(2-phenoxyphenyl)-5-[4-(piperidin-1-ylmethyl)phenyl]pyridazin-3(2H)-one] was tested, and the EC50 ([1]; 72 h incubation) was 1730 nM, the Ki [2, 4] was 92.5 nM and the Ki [3, 4] was 70.8 nM.

`CC(=O)Nc1ccc(Oc2ccccc2)c(-c2c[nH]c(=O)c(C)c2)c1` [Example 262, N-[3-(5-methyl-6-oxo-1,6-dihydropyridin-3-yl)-4-phenoxyphenyl]acetamide] showed an EC50 ([1]; 72 h incubation) of 783 nM, a Ki [2, 4] of 290 nM and a Ki [3, 4] of 77.9 nM.

For `CC(=O)NCc1ccc(-c2cc(=O)n(C)nc2-c2ccccc2Oc2ccccc2)cc1` [Example 99, N-{4-[1-methyl-6-oxo-3-(2-phenoxyphenyl)-1,6-dihydropyridazin-4-yl]benzyl}acetamide], the EC50 ([1]; 72 h incubation) was 558 nM, the Ki [2, 4] was 58.7 nM and the Ki [3, 4] was 142 nM.

`C/C=C/c1cc(=O)n(C)cc1-c1cc(NS(=O)(=O)CC)ccc1Oc1ccc(F)cc1F` [Example 329, N-[4-(2,4-difluorophenoxy)-3-{1-methyl-6-oxo-4-[(1E)-prop-1-en-1-yl]-1,6-dihydropyridin-3-yl]phenyl}ethanesulfonamide] was tested, and the EC50 ([1]; 72 h incubation) was 22.7 nM, the Ki [2, 4] was 1.71 nM and the Ki [3, 4] was 2.98 nM.

Work on `CCOc1cc(=O)n(C)cc1-c1cc(NS(=O)(=O)c2ccc(C(C)C)cc2)ccc1Oc1ccc(F)cc1F` [Example 347, N-[4-(2,4-difluorophenoxy)-3-(4-ethoxy-1-methyl-6-oxo-1,6-dihydropyridin-3-yl)phenyl]-4-(propan-2-yl)benzenesulfonamide] yielded an EC50 ([1]; 72 h incubation) of 1560 nM, a Ki [2, 4] of 53.4 nM and a Ki [3, 4] of 169 nM.

`Cn1cc(-c2cc(NS(=O)(=O)c3c[nH]cn3)ccc2Oc2ccccc2)ccc1=O` [Example 228, N-[3-(1-methyl-6-oxo-1,6-dihydropyridin-3-yl)-4-phenoxyphenyl]-1H-imidazole-4-sulfonamide] gave an EC50 ([1]; 72 h incubation) greater than 3000 nM, a Ki [2, 4] of 154 nM and a Ki [3, 4] of 142 nM.

For `COC(=O)CNc1cc(=O)n(C)nc1-c1ccccc1Oc1ccccc1` [Example 50, methyl N-[1-methyl-6-oxo-3-(2-phenoxyphenyl)-1,6-dihydropyridazin-4-yl]glycinate], the EC50 ([1]; 72 h incubation) was 9520 nM, the Ki [2, 4] was 2420 nM and the Ki [3, 4] was 2100 nM.

Work on `COC(=O)/C=C/c1cc(=O)n(C)nc1-c1ccccc1Oc1ccccc1` [Example 219, methyl (2E)-3-[1-methyl-6-oxo-3-(2-phenoxyphenyl)-1,6-dihydropyridazin-4-yl]prop-2-enoate] yielded an EC50 ([1]; 72 h incubation) of 5500 nM, a Ki [2, 4] of 308 nM and a Ki [3, 4] of 7250 nM.

In the case of `CNc1ccc(-c2cc(=O)n(C)nc2-c2ccccc2Oc2ccccc2)cc1` [Example 191, 2-methyl-5-[4-(methylamino)phenyl]-6-(2-phenoxyphenyl)pyridazin-3(2H)-one], the EC50 ([1]; 72 h incubation) is reported as 1430 nM, the Ki [2, 4] is reported as 162 nM and the Ki [3, 4] is reported as 324 nM.

Work on `Cn1cc(-c2ccccc2Oc2ccccc2)ccc1=O` [Example 223, 1-methyl-5-(2-phenoxyphenyl)pyridin-2(1H)-one] yielded an EC50 ([1]; 72 h incubation) of 4810 nM, a Ki [2, 4] of 872 nM and a Ki [3, 4] of 635 nM.

`Cn1cc(-c2cc(NS(C)(=O)=O)ccc2OC2CCCCC2)ccc1=O` [Example 247, N-[4-(cyclohexyloxy)-3-(1-methyl-6-oxo-1,6-dihydropyridin-3-yl)phenyl]methanesulfonamide] was tested, and the EC50 ([1]; 72 h incubation) was 425 nM, the Ki [2, 4] was 194 nM and the Ki [3, 4] was 22.4 nM.

Compound `Cn1cc(-c2cc(NS(C)(=O)=O)ccc2Oc2cccc(C(F)(F)F)c2)ccc1=O` [Example 244, N-{3-(1-methyl-6-oxo-1,6-dihydropyridin-3-yl)-4-[3-(trifluoromethyl)phenoxy]phenyl}methanesulfonamide] has an EC50 ([1]; 72 h incubation) of 481 nM, a Ki [2, 4] of 282 nM and a Ki [3, 4] of 116 nM.

`CCS(=O)(=O)Nc1ccc(Oc2ccc(F)cc2F)c(-c2cn(C)c(=O)cc2-c2cnn(C)c2)c1` [Example 342, N-{4-(2,4-difluorophenoxy)-3-[1-methyl-4-(1-methyl-1H-pyrazol-4-yl)-6-oxo-1,6-dihydropyridin-3-yl]phenyl}ethanesulfonamide] gave an EC50 ([1]; 72 h incubation) of 91.2 nM, a Ki [2, 4] of 0.609 nM and a Ki [3, 4] of 2.21 nM.

`Cn1cc(-c2cc(NS(=O)(=O)CC(=O)O)ccc2Oc2ccccc2)ccc1=O` [Example 226, {[3-(1-methyl-6-oxo-1,6-dihydropyridin-3-yl)-4-phenoxyphenyl]sulfamoyl}acetic acid] showed an EC50 ([1]; 72 h incubation) of 10000 nM, a Ki [2, 4] of 1130 nM and a Ki [3, 4] of 271 nM.
